IC50 data for 37 compounds are collected here from patent publication US11505548B2, “Heterocyclic compounds and their use for treatment of helminthic infections and diseases” (Celgene Corporation, priority 2019, dated 2022).

This assay deals with microfilariae of Dirofilaria immitis. The experiment in a line: Dirofilaria immitis, Microfilaria (DiMF) Assay. The assay is classed as cell-based. As to conditions: read-out: D. immitis activity level (IC50 or MED). In outline: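 D. immitis microfilariae were incubated in medium with DMSO-diluted compounds for about 72 h. Survival or paralysis was scored subjectively under the microscope. Values are Minimum Effective Dose (MED).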

pIC50: −log10 of the molar value.

Broadly, the pIC50 is the negative decadic logarithm of the IC50, by convention in mol/L. In the case of `CC(=O)N(C)c1cccnc1Nc1nc(-c2cc3c(cn2)N(C)CC3)ns1` [Compound 202, N-methyl-N-(2-(3-(1-methyl-2,3-dihydro-1H-pyrrolo[2,3-c]pyridin-5-yl)-1,2,4-thiadiazol-5-ylamino)pyridin-3-yl)acetamide], the pIC50 was 5.30 to 6.30. The figure for `Cc1ccnc(Nc2nnc(-c3ncccc3C)[nH]2)c1` [Compound 242, 4-methyl-N-(5-(3-methyl-pyridin-2-yl)-4H-1,2,4-triazol-3-yl)pyridin-2-amine] is 6.30 to 6.70. The figure for `CC(=O)N1CCC(Oc2ccc(-c3nsc(Nc4ncccc4C)n3)nc2)CC1` [Compound 266, 1-(4-(6-(5-(3-methyl-pyridin-2-ylamino)-1,2,4-thiadiazol-3-yl)pyridin-3-yloxy)piperidin-1-yl)ethanone] is 5.30 to 6.30; for `CC(C)Oc1ccc(-c2nsc(Nc3ncccc3C(=O)N(C)C3CC(F)(F)C3)n2)nc1` [Compound 191, N-(3,3-difluoro-cyclobutyl)-2-(3-(5-isoprop-oxypyridin-2-yl)-1,2,4-thiadiazol-5-ylamino)-N-methyl-nicotinamide] it is 5.30 to 6.30.

Consider `CC(=O)N(C)c1cccnc1Nc1nc(-c2ccc(OC(C)C)cn2)ns1` [Compound 157, N-(2-(3-(5-isopropoxy-pyridin-2-yl)-1,2,4-thiadiazol-5-ylamino)pyridin-3-yl)-N-methyl-acetamide], for which the pIC50 is 5.30 to 6.30. For `Cc1cnc(Nc2nc(-c3cc(C(=O)N(C)C)c(OC(C)C)cn3)ns2)c(C(F)(F)F)c1` [Compound 254, 5-isopropoxy-N,N-dimethyl-2-(5-(5-methyl-3-(trifluoromethyl)pyridin-2-ylamino)-1,2,4-thiadiazol-3-yl)isonico-tinamide], the pIC50 was 5.30 to 6.30. With `CC(C)Oc1ccc(-c2nsc(Nc3ncccc3C(=O)N3CCCC3)n2)nc1` [Compound 190, (2-(3-(5-isoprop-oxypyridin-2-yl)-1,2,4-thiadiazol-5-ylamino)pyridin-3-yl) (pyrrolidin-1-yl) methanone] the figure was 5.30 to 6.30; with `Cc1cccnc1Nc1nc(-c2cc(C(F)(F)F)c(OCC3CC3)cn2)ns1` [Compound 110, 3-(5-(cyclo-propylmethoxy)-4-(trifluoromethyl)pyridin-2-yl)-N-(3-methyl-pyridin-2-yl)-1,2,4-thiadiazol-5-amine], 6.30 to 6.70; with `O=C1CCCN1c1cccnc1Nc1nc(-c2ccc(NC34CC(C3)C4)cn2)ns1` [Compound 204, 1-(2-(3-(5-(bicyclo [1.1.1]pentan-1-ylamino)pyridin-2-yl)-1,2,4-thiadiazol-5-ylamino)pyridin-3-yl)pyrrolidin-2-one], 5.30 to 6.30. With `CNc1cccnc1Nc1nc(-c2ccc(OC(C)C)cn2)ns1` [Compound 108, N2-(3-(5-isopropoxypyridin-2-yl)-1,2,4-thiadiazol-5-yl)-N3-methyl-pyridine-2,3-diamine] the figure was 6.30 to 6.70; with `CC(C)Oc1cnc(-c2nsc(Nc3ncccc3C(C)C)n2)cc1C(N)=O` [Compound 198, 5-isopropoxy-2-(5-(3-isopropylpyridin-2-ylamino)-1,2,4-thiadiazol-3-yl)isonicotin-amide], 5.30 to 6.30; with `CC(C)Oc1cnc(-c2nsc(Nc3ncc(C(C)C)cc3C(F)(F)F)n2)cc1C(N)=O` [Compound 221, 5-isopropoxy-2-(5-(5-isopropyl-3-(trifluoromethyl)pyridin-2-ylamino)-1,2,4-thiadiazol-3-yl)iso-nicotinamide], 6.30 to 6.70.

Turning to `CC(C)Oc1cnc(-c2nsc(Nc3ncccc3N3CCCC3=O)n2)cc1C(F)(F)F` [Compound 179, 1-(2-(3-(5-isopropoxy-4-(trifluoromethyl)pyridin-2-yl)-1,2,4-thiadiazol-5-ylamino)pyridin-3-yl)pyrrolidin-2-one], the pIC50 is 5.30 to 6.30. With `COc1ccnc(-c2nsc(Nc3ccc(C(C)C)cn3)n2)c1` [Compound 177, N-(5-isopropyl-pyridin-2-yl)-3-(4-methoxy-pyridin-2-yl)-1,2,4-thiadiazol-5-amine] the figure was > 6.70; with `COc1cccnc1-c1nsc(Nc2cc(C(F)(F)F)c(C(C)C)cn2)n1` [Compound 210, N-(5-isopropyl-4-(trifluoromethyl)pyridin-2-yl)-3-(3-methoxy-pyridin-2-yl)-1,2,4-thiadiazol-5-amine], 6.30 to 6.70; with `Cc1cccnc1-c1noc(Nc2ccc(N3CCCC3)cn2)n1` [Compound 42, 3-(3-methyl-pyridin-2-yl)-N-(5-(pyrrolidin-1-yl)pyridin-2-yl)-1,2,4-oxadiazol-5-amine], 5.30 to 6.30.

In the case of `Cc1cccnc1Nc1nc(-c2ncc(OC3CC3)cc2C(F)(F)F)ns1` [Compound 93, 3-(5-cyclo-propoxy-3-(trifluoromethyl)pyridin-2-yl)-N-(3-methyl-pyridin-2-yl)-1,2,4-thiadiazol-5-amine], the pIC50 was 5.30 to 6.30. With `CC(=O)N(C)c1cc(C(F)(F)F)cnc1Nc1nc(-c2cc(C(F)(F)F)c(OC(C)C)cn2)ns1` [Compound 268, N-(2-(3-(5-isopropoxy-4-(trifluoromethyl)pyridin-2-yl)-1,2,4-thiadiazol-5-ylamino)-5-(trifluoromethyl)pyridin-3-yl)-N-methylacetamide] the figure was > 6.70; with `O=C(NC1CC(F)(F)C1)c1ccc(Nc2nc(-c3ccc(OC4CC4)cn3)ns2)nc1` [Compound 107, 6-(3-(5-cyclo-propoxypyridin-2-yl)-1,2,4-thiadiazol-5-ylamino)-N-(3,3-difluoro-cyclobutyl) nicotinamide], 5.30 to 6.30; with `FC(F)(F)c1ccc(Nc2nc(-c3ccccn3)ns2)nc1` [Cmpd 1], > 6.70. As to `CN(C)c1cccnc1Nc1nc(-c2ccc(OCC3CC3)cn2)ns1` [Compound 118, N2-(3-(5-(cyclopropyl-methoxy)pyridin-2-yl)-1,2,4-thiadiazol-5-yl)-N3,N3-dimethyl-pyridine-2,3-diamine], the pIC50 is 5.30 to 6.30. The figure for `c1ccc(-c2ccnc(Nc3nnc(-c4ccccn4)[nH]3)c2)cc1` [Compound 241, 4-phenyl-N-(5-(pyridin-2-yl)-4H-1,2,4-triazol-3-yl) pyridin-2-amine] is 6.30 to 6.70; for `Cc1ccnc(Nc2nc(-c3ncccc3C)ns2)c1` [Compound 238, 3-(3-methyl-pyridin-2-yl)-N-(4-methyl-pyridin-2-yl)-1,2,4-thiadiazol-5-amine] it is 6.30 to 6.70. The figure for `CC(C)c1cnc(Nc2nc(-c3ccc(OC4CC4)cn3)ns2)cc1C(F)(F)F` [Compound 95, 3-(5-cyclopropoxy-pyridin-2-yl)-N-(5-isopropyl-4-(trifluoromethyl)pyridin-2-yl)-1,2,4-thiadiazol-5-amine] is > 6.70; for `COc1cnc(Nc2nc(-c3cc(C(N)=O)c(OC(C)C)cn3)ns2)c(C(F)(F)F)c1` [Compound 253, 5-isopropoxy-2-(5-(5-methoxy-3-(trifluoro-methyl)pyridin-2-ylamino)-1,2,4-thiadiazol-3-yl)isonico-tinamide] it is 5.30 to 6.30. With `Cc1cccnc1Nc1nc(-c2ccc(OC3CCN(C(=O)C(C)C)CC3)cn2)ns1` [Compound 265, 2-methyl-1-(4-(6-(5-(3-methylpyridin-2-ylamino)-1,2,4-thiadiazol-3-yl)pyridin-3-yloxy)piperidin-1-yl)propan-1-one] the figure was 5.30 to 6.30; with `Cc1cccnc1Nc1nc(-c2cc(C#N)ccn2)ns1` [Compound 40, 2-(5-(3-methyl-pyridin-2-ylamino)-1,2,4-thiadiazol-3-yl)isonicotino-nitrile], 5.30 to 6.30. For the compound `CC(C)Oc1cccnc1-c1nsc(Nc2cc(N3CCCC3)ccn2)n1` [Compound 94, 3-(3-isopropoxy-pyridin-2-yl)-N-(4-(pyrrolidin-1-yl)pyridin-2-yl)-1,2,4-thiadiazol-5-amine], the pIC50 is 5.30 to 6.30. With `CC(C)Oc1ccc(-c2nsc(Nc3ncccc3N3CCCC3)n2)nc1` [Compound 116, 3-(5-isopropoxy-pyridin-2-yl)-N-(3-(pyrrolidin-1-yl)pyridin-2-yl)-1,2,4-thiadiazol-5-amine] the figure was 5.30 to 6.30; with `Cc1cccnc1Nc1nc(-c2ccc(OCC3CC3)cn2)ns1` [Compound 73, 3-(5-(cyclopropyl-methoxy)pyridin-2-yl)-N-(3-methylpyridin-2-yl)-1,2,4-thiadiazol-5-amine], 6.30 to 6.70. The figure for `CC(C)Oc1ccc(-c2nsc(Nc3ncc(C(F)(F)F)cc3N(C)C(=O)C3CC3)n2)nc1` [Compound 248, N-(2-(3-(5-isopropoxy-pyridin-2-yl)-1,2,4-thiadiazol-5-ylamino)-5-(trifluoro-methyl)pyridin-3-yl)-N-methylcyclo-propanecarbox-amide] is > 6.70. The figure for `CC(C)Oc1cnc(-c2nsc(Nc3ncccc3C(C)C)n2)cc1C(F)(F)F` [Compound 168, 3-(5-isoprop-oxy-4-(trifluoromethyl)pyridin-2-yl)-N-(3-isopropyl-pyridin-2-yl)-1,2,4-thiadiazol-5-amine] is 6.30 to 6.70; for `Cc1cccnc1Nc1nc(-c2ccc(OC3CCN(C4CC4)CC3(F)F)cn2)ns1` (stereo not shown) [Compound 83, 3-(5-(1-cyclo-propyl-3,3-difluoro-piperidin-4-yloxy)pyridin-2-yl)-N-(3-methylpyridin-2-yl)-1,2,4-thiadiazol-5-amine] it is 6.30 to 6.70. For the compound `COc1ccc(Nc2nc(-c3cc(OC4CCCCC4)ccn3)ns2)nc1` [Compound 183, 3-(4-(cyclo-hexyloxy)pyridin-2-yl)-N-(5-methoxypyridin-2-yl)-1,2,4-thiadiazol-5-amine], the pIC50 was > 6.70. Regarding `c1ccc(-c2nsc(Nc3ccc(N4CCCC4)cn3)n2)nc1` [Cmpd 8, 3-(pyridin-2-yl)-N-(5-(pyrrolidin-1-yl)pyridin-2-yl)-1,2,4-thiadiazol-5-amine], the pIC50 is 5.30 to 6.30. The figure for `CC(C)Oc1ccc(-c2nsc(Nc3ncccc3C(C)C)n2)nc1` [Compound 115, 3-(5-isopropoxy-pyridin-2-yl)-N-(3-isopropyl-pyridin-2-yl)-1,2,4-thiadiazol-5-amine] is > 6.70. With `CN(C)c1cccnc1Nc1nc(-c2ccc(F)cn2)ns1` [Compound 121, N2-(3-(5-fluoro-pyridin-2-yl)-1,2,4-thiadiazol-5-yl)-N3,N3-dimethylpyridine-2,3-diamine] the figure was 5.30 to 6.30.
